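Method: 48-hour compound exposure of cells in 96-well plates, five concentrations, linear interpolation of endpoints. Here, GI50 denotes the concentration required for 50% inhibition of growth. TGI: concentration producing complete growth inhibition.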
Tests used:
Experiment in all cases: NCI-60 cell line screen, 48 h
786-0 renal = system: 786-0 renal
A498 renal = system: A498 renal
A549 NSCLC = system: A549 NSCLC
ACHN renal = system: ACHN renal
CAKI-1 renal = system: CAKI-1 renal
CCRF-CEM leukemia = system: CCRF-CEM leukemia
COLO 205 colon = system: COLO 205 colon
DU-145 prostate = system: DU-145 prostate
EKVX NSCLC = system: EKVX NSCLC
HCC-2998 colon = system: HCC-2998 colon
HCT-116 colon = system: HCT-116 colon
HCT-15 colon = system: HCT-15 colon
HL-60(TB) leukemia = system: HL-60(TB) leukemia
HOP-62 NSCLC = system: HOP-62 NSCLC
HOP-92 NSCLC = system: HOP-92 NSCLC
HS 578T breast = system: HS 578T breast
HT29 colon = system: HT29 colon
IGROV1 ovarian = system: IGROV1 ovarian
K-562 leukemia = system: K-562 leukemia
KM12 colon = system: KM12 colon
LOX IMVI melanoma = system: LOX IMVI melanoma
M14 melanoma = system: M14 melanoma
MALME-3M melanoma = system: MALME-3M melanoma
MCF7 breast = system: MCF7 breast
MDA-MB-231 breast = system: MDA-MB-231 breast
MDA-MB-435 = system: MDA-MB-435
MDA-MB-468 breast = system: MDA-MB-468 breast
MOLT-4 leukemia = system: MOLT-4 leukemia
NCI-H226 lung = system: NCI-H226 lung

In the case of CN1CCCN(Cc2ccc(C(=O)Nc3cccc(Nc4ccc5cc(O)ccc5n4)c3)cc2C(F)(F)F)CC1, the GI50 (786-0 renal) is reported as 16 µM, the TGI (786-0 renal) is reported as 30.1 µM and the GI50 (A498 renal) is reported as 17.6 µM. It also gave a TGI (A498 renal) of 32 µM, a GI50 (A549 NSCLC) of 16.2 µM and a TGI (A549 NSCLC) of 33.1 µM. It also gave a GI50 (ACHN renal) of 19.7 µM, a TGI (ACHN renal) of 38.4 µM and a GI50 (CAKI-1 renal) of 14.1 µM. The TGI (CAKI-1 renal) was 27.8 µM, the GI50 (CCRF-CEM leukemia) was 4.94 µM and the TGI (CCRF-CEM leukemia) was 25.7 µM. It also gave a GI50 (COLO 205 colon) of 18.5 µM, a TGI (COLO 205 colon) of 33.3 µM and a GI50 (DU-145 prostate) of 16.9 µM. For the same compound, the TGI (DU-145 prostate) was 30.6 µM, the GI50 (EKVX NSCLC) was 16 µM and the TGI (EKVX NSCLC) was 31.3 µM. It also gave a GI50 (HCC-2998 colon) of 16.5 µM, a TGI (HCC-2998 colon) of 30.5 µM and a GI50 (HCT-116 colon) of 6.51 µM. The TGI (HCT-116 colon) was 22.1 µM, the GI50 (HCT-15 colon) was 16.4 µM and the TGI (HCT-15 colon) was 33.9 µM. For the same compound, the GI50 (HL-60(TB) leukemia) was 11.9 µM, the TGI (HL-60(TB) leukemia) was 31.8 µM and the GI50 (HOP-62 NSCLC) was 17.8 µM. It also gave a TGI (HOP-62 NSCLC) of 31.8 µM, a GI50 (HOP-92 NSCLC) of 10.4 µM and a TGI (HOP-92 NSCLC) of 23.3 µM. For the same compound, the GI50 (HS 578T breast) was 14.8 µM, the TGI (HS 578T breast) was 50.2 µM and the GI50 (HT29 colon) was 13.3 µM. The TGI (HT29 colon) was 28.8 µM, the GI50 (IGROV1 ovarian) was 17.2 µM and the TGI (IGROV1 ovarian) was 32 µM. It also gave a GI50 (K-562 leukemia) of 1.18 µM, a TGI (K-562 leukemia) of 4.54 µM and a GI50 (KM12 colon) of 14.1 µM. For the same compound, the TGI (KM12 colon) was 28.1 µM, the GI50 (LOX IMVI melanoma) was 12.1 µM and the TGI (LOX IMVI melanoma) was 25 µM. It also gave a GI50 (M14 melanoma) of 12.7 µM, a TGI (M14 melanoma) of 27.8 µM and a GI50 (MALME-3M melanoma) of 12.6 µM. For the same compound, the TGI (MALME-3M melanoma) was 25.6 µM, the GI50 (MCF7 breast) was 9.83 µM and the TGI (MCF7 breast) was 24.7 µM. The GI50 (MDA-MB-231 breast) was 13.9 µM, the TGI (MDA-MB-231 breast) was 27.5 µM and the GI50 (MDA-MB-435) was 10.4 µM. For the same compound, the TGI (MDA-MB-435) was 22.1 µM, the GI50 (MDA-MB-468 breast) was 8.88 µM and the TGI (MDA-MB-468 breast) was 21.6 µM. The GI50 (MOLT-4 leukemia) was 2.05 µM, the TGI (MOLT-4 leukemia) was 14.5 µM and the GI50 (NCI-H226 lung) was 13.8 µM.
